Test results taken from ChEMBL document CHEMBL1201862, “PubChem BioAssay data set” (2004).
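Compound exposure: 48 hours, 5 concentrations, 96-well plates. Abbreviation: GI50, concentration required for 50% inhibition of growth.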 The source made the active and inactive calls. No stated cut-off is given here; in the data, active = GI50 up to about 1.1 µM and inactive = higher.

Tests used:
Experiment in all cases: NCI-60 cell line screen, 48 h
NCI-H23 = test system: NCI-H23
BT-549 = test system: BT-549
CAKI-1 = test system: CAKI-1
NCI-H460 = test system: NCI-H460
MOLT-4 = test system: MOLT-4
OVCAR-8 = test system: OVCAR-8
KM12 = test system: KM12
COLO 205 = test system: COLO 205
A549 = test system: A549
T47D = test system: T47D
NCI-H226 = test system: NCI-H226
DU-145 = test system: DU-145
SNB-19 = test system: SNB-19
MDA-MB-231 = test system: MDA-MB-231
HCT-15 = test system: HCT-15
HOP-92 = test system: HOP-92
SF-539 = test system: SF-539
HOP-62 = test system: HOP-62
SN12C = test system: SN12C
Malme-3M = test system: Malme-3M
K562 = test system: K562
RPMI-8226 = test system: RPMI-8226
CCRF-CEM = test system: CCRF-CEM
UACC-62 = test system: UACC-62
RXF 393 = test system: RXF 393
SK-MEL-2 = test system: SK-MEL-2
HT-29 = test system: HT-29
TK-10 = test system: TK-10
U-251 = test system: U-251
SK-MEL-28 = test system: SK-MEL-28
MDA-N = test system: MDA-N
SR = test system: SR
EKVX = test system: EKVX
OVCAR-5 = test system: OVCAR-5
SNB-75 = test system: SNB-75
SK-MEL-5 = test system: SK-MEL-5
UACC-257 = test system: UACC-257
OVCAR-3 = test system: OVCAR-3
HCC 2998 = test system: HCC 2998
SF-268 = test system: SF-268
HL-60 = test system: HL-60
MDA-MB-435 = test system: MDA-MB-435
MCF7 = test system: MCF7
ACHN = test system: ACHN
Hs-578T = test system: Hs-578T
SF-295 = test system: SF-295
SK-OV-3 = test system: SK-OV-3
OVCAR-4 = test system: OVCAR-4
A498 = test system: A498
NCI/ADR-RES = test system: NCI/ADR-RES
HCT-116 = test system: HCT-116
SW-620 = test system: SW-620
UO-31 = test system: UO-31
M14 = test system: M14
786-0 = test system: 786-0
IGROV-1 = test system: IGROV-1
NCI-H522 = test system: NCI-H522
LOX IMVI = test system: LOX IMVI
PC-3 = test system: PC-3

## O/N=C1\CCc2cc3c(cc21)CCC3
NCI-H23
  GI50: > 100 µM (inactive)
BT-549
  GI50: > 100 µM (inactive)
CAKI-1
  GI50: > 100 µM (inactive)
NCI-H460
  GI50: > 100 µM (inactive)
MOLT-4
  GI50: > 100 µM (inactive)
OVCAR-8
  GI50: > 100 µM (inactive)
KM12
  GI50: > 100 µM (inactive)
COLO 205
  GI50: > 100 µM (inactive)
A549
  GI50: > 100 µM (inactive)
T47D
  GI50: 86.3 µM (inactive)
NCI-H226
  GI50: > 100 µM (inactive)
DU-145
  GI50: > 100 µM (inactive)
SNB-19
  GI50: > 100 µM (inactive)
MDA-MB-231
  GI50: > 100 µM (inactive)
HCT-15
  GI50: > 100 µM
HOP-92
  GI50: 55.7 µM (inactive)
SF-539
  GI50: > 100 µM (inactive)
HOP-62
  GI50: > 100 µM (inactive)
SN12C
  GI50: > 100 µM (inactive)
Malme-3M
  GI50: > 100 µM (inactive)
K562
  GI50: > 100 µM (inactive)
RPMI-8226
  GI50: > 100 µM (inactive)
CCRF-CEM
  GI50: > 100 µM (inactive)
UACC-62
  GI50: > 100 µM (inactive)
RXF 393
  GI50: > 100 µM (inactive)
SK-MEL-2
  GI50: > 100 µM (inactive)
HT-29
  GI50: > 100 µM (inactive)
TK-10
  GI50: > 100 µM (inactive)
U-251
  GI50: > 100 µM (inactive)
SK-MEL-28
  GI50: > 100 µM (inactive)
MDA-N
  GI50: > 100 µM (inactive)
SR
  GI50: > 100 µM (inactive)
EKVX
  GI50: 5.65 µM (inactive)
OVCAR-5
  GI50: > 100 µM (inactive)
SNB-75
  GI50: 44.3 µM (inactive)
SK-MEL-5
  GI50: > 100 µM (inactive)
UACC-257
  GI50: > 100 µM (inactive)
OVCAR-3
  GI50: > 100 µM (inactive)
HCC 2998
  GI50: > 100 µM (inactive)
SF-268
  GI50: 97.9 µM (inactive)
HL-60
  GI50: 67.5 µM (inactive)
MDA-MB-435
  GI50: > 100 µM (inactive)
MCF7
  GI50: > 100 µM (inactive)
ACHN
  GI50: > 100 µM (inactive)
Hs-578T
  GI50: 34.9 µM (inactive)
SF-295
  GI50: > 100 µM (inactive)
SK-OV-3
  GI50: > 100 µM (inactive)
OVCAR-4
  GI50: > 100 µM (inactive)
A498
  GI50: > 100 µM (inactive)
NCI/ADR-RES
  GI50: > 100 µM (inactive)
HCT-116
  GI50: > 100 µM (inactive)
SW-620
  GI50: > 100 µM (inactive)
UO-31
  GI50: > 100 µM (inactive)
M14
  GI50: > 100 µM (inactive)
786-0
  GI50: > 100 µM (inactive)
IGROV-1
  GI50: > 100 µM (inactive)
NCI-H522
  GI50: > 100 µM (inactive)
LOX IMVI
  GI50: > 100 µM (inactive)
PC-3
  GI50: > 100 µM (inactive)

## CSCCC(NC(=O)OC(C)(C)C)C(=O)NCCNc1ccc(NCCNC(=O)C(CCSC)NC(=O)OC(C)(C)C)c2c1C(=O)c1ccccc1C2=O (configuration not stated)
NCI-H23
  GI50: 4.51 µM (inactive)
BT-549
  GI50: 4.43 µM (inactive)
CAKI-1
  GI50: 4.75 µM (inactive)
NCI-H460
  GI50: 5.85 µM (inactive)
MOLT-4
  GI50: 3.44 µM (inactive)
OVCAR-8
  GI50: 1.96 µM (inactive)
KM12
  GI50: 5.77 µM (inactive)
COLO 205
  GI50: 2.22 µM (inactive)
A549
  GI50: 2.84 µM (inactive)
T47D
  GI50: 5.21 µM (inactive)
NCI-H226
  GI50: 6.76 µM (inactive)
DU-145
  GI50: 4.79 µM (inactive)
SNB-19
  GI50: 4.75 µM (inactive)
MDA-MB-231
  GI50: 2.83 µM (inactive)
HCT-15
  GI50: > 67.6 µM
HOP-92
  GI50: 3.93 µM (inactive)
SF-539
  GI50: 2.71 µM (inactive)
HOP-62
  GI50: 3.15 µM (inactive)
SN12C
  GI50: 7.71 µM (inactive)
Malme-3M
  GI50: 2.33 µM (inactive)
K562
  GI50: 2.75 µM (inactive)
RPMI-8226
  GI50: 3.01 µM (inactive)
CCRF-CEM
  GI50: 3.56 µM (inactive)
UACC-62
  GI50: 3.8 µM (inactive)
RXF 393
  GI50: 16.3 µM (inactive)
SK-MEL-2
  GI50: 14.2 µM (inactive)
HT-29
  GI50: 2.64 µM (inactive)
TK-10
  GI50: 3.38 µM (inactive)
U-251
  GI50: 2.88 µM (inactive)
SK-MEL-28
  GI50: 1.85 µM (inactive)
MDA-N
  GI50: 2.74 µM (inactive)
SR
  GI50: 2.83 µM (inactive)
EKVX
  GI50: 8.11 µM (inactive)
OVCAR-5
  GI50: 5.74 µM (inactive)
SNB-75
  GI50: 2.37 µM (inactive)
SK-MEL-5
  GI50: 3.07 µM (inactive)
UACC-257
  GI50: 5.65 µM (inactive)
OVCAR-3
  GI50: 7.16 µM (inactive)
HCC 2998
  GI50: 2.32 µM (inactive)
SF-268
  GI50: 3.37 µM (inactive)
HL-60
  GI50: 3.01 µM (inactive)
MDA-MB-435
  GI50: 2.63 µM (inactive)
MCF7
  GI50: 6.01 µM (inactive)
ACHN
  GI50: 7.13 µM (inactive)
Hs-578T
  GI50: 2.39 µM (inactive)
SF-295
  GI50: 7.57 µM (inactive)
SK-OV-3
  GI50: 8.89 µM (inactive)
OVCAR-4
  GI50: 6.7 µM (inactive)
A498
  GI50: 4.62 µM (inactive)
NCI/ADR-RES
  GI50: > 74.1 µM (inactive)
HCT-116
  GI50: 8.71 µM (inactive)
SW-620
  GI50: 2.23 µM (inactive)
UO-31
  GI50: > 100 µM (inactive)
M14
  GI50: 3.85 µM (inactive)
786-0
  GI50: 5.82 µM (inactive)
IGROV-1
  GI50: 3.14 µM (inactive)
NCI-H522
  GI50: 1.39 µM (inactive)
LOX IMVI
  GI50: 7.74 µM (inactive)
PC-3
  GI50: 5.31 µM (inactive)

## CC1=C[C@@H](C)C[C@]2(C)CC[C@H](O2)[C@]23CC[C@](C(=O)O)(C[C@H](O2)[C@@H]2O[C@@](C)(CC2=O)[C@@H](O)[C@H]2CC[C@@]4(CCC[C@@H](O4)[C@H](C)C(=O)O[C@H]4C[C@H]([C@]5(O)OCC[C@H](C)[C@@H]5O)O[C@H]4C=C1)O2)O3
NCI-H23
  GI50: > 10 µM (inactive)
BT-549
  GI50: > 7.83 µM (inactive)
CAKI-1
  GI50: > 10 µM (inactive)
NCI-H460
  GI50: > 10 µM (inactive)
MOLT-4
  GI50: > 10 µM (inactive)
OVCAR-8
  GI50: > 10 µM (inactive)
KM12
  GI50: > 10 µM (inactive)
COLO 205
  GI50: > 8.55 µM (inactive)
A549
  GI50: > 10 µM (inactive)
T47D
  GI50: > 10 µM (inactive)
NCI-H226
  GI50: > 5.71 µM (inactive)
DU-145
  GI50: > 10 µM (inactive)
SNB-19
  GI50: > 10 µM (inactive)
MDA-MB-231
  GI50: > 10 µM (inactive)
HCT-15
  GI50: > 10 µM
HOP-92
  GI50: > 3.92 µM (inactive)
SF-539
  GI50: > 5.82 µM (inactive)
HOP-62
  GI50: > 9.59 µM (inactive)
SN12C
  GI50: > 8.55 µM (inactive)
Malme-3M
  GI50: > 10 µM (inactive)
K562
  GI50: > 10 µM (inactive)
RPMI-8226
  GI50: > 10 µM (inactive)
CCRF-CEM
  GI50: > 10 µM (inactive)
UACC-62
  GI50: > 9.02 µM (inactive)
RXF 393
  GI50: > 10 µM (inactive)
SK-MEL-2
  GI50: > 6.85 µM (inactive)
HT-29
  GI50: > 10 µM (inactive)
TK-10
  GI50: > 7.62 µM (inactive)
U-251
  GI50: > 10 µM (inactive)
SK-MEL-28
  GI50: > 10 µM (inactive)
MDA-N
  GI50: > 8.95 µM (inactive)
SR
  GI50: > 10 µM (inactive)
EKVX
  GI50: > 10 µM (inactive)
OVCAR-5
  GI50: > 10 µM (inactive)
SNB-75
  GI50: 3.5 µM (inactive)
SK-MEL-5
  GI50: > 7.23 µM (inactive)
UACC-257
  GI50: > 10 µM (inactive)
OVCAR-3
  GI50: > 10 µM (inactive)
HCC 2998
  GI50: > 10 µM (inactive)
SF-268
  GI50: > 10 µM (inactive)
HL-60
  GI50: > 10 µM (inactive)
MDA-MB-435
  GI50: > 10 µM (inactive)
MCF7
  GI50: > 10 µM (inactive)
ACHN
  GI50: > 10 µM (inactive)
Hs-578T
  GI50: > 3.78 µM (inactive)
SF-295
  GI50: > 5.86 µM (inactive)
SK-OV-3
  GI50: > 10 µM (inactive)
OVCAR-4
  GI50: > 10 µM (inactive)
A498
  GI50: > 5.75 µM (inactive)
NCI/ADR-RES
  GI50: > 10 µM (inactive)
HCT-116
  GI50: > 10 µM (inactive)
SW-620
  GI50: > 10 µM (inactive)
UO-31
  GI50: > 10 µM (inactive)
M14
  GI50: > 9.38 µM (inactive)
786-0
  GI50: > 10 µM (inactive)
IGROV-1
  GI50: > 5.5 µM (inactive)
NCI-H522
  GI50: > 7.71 µM (inactive)
LOX IMVI
  GI50: > 6.92 µM (inactive)
PC-3
  GI50: > 10 µM (inactive)
